Columns and labels:
[1] = system: SF-295; assay: Growth inhibition of human SF-295 cells; type: functional
[2] = system: Panel NCI-60 (60 carcinoma cell lines); assay: Growth inhibition of human Panel NCI-60 cells; type: functional

Compound	GI50 [1] [µM]	GI50 [2] [µM]
COc1cc(/C=C/c2cc(O)c(C/C=C(\C)CCC=C(C)C)c(O)c2)cc2c1O[C@]1(C)CC[C@@H](O)C(C)(C)[C@H]1C2 [3-DEOXYSCHWEINFURTHIN B]	0.062	0.62
COc1cc(-n2cc(-c3cc(O)c(C/C=C(\C)CCC=C(C)C)c(O)c3)nn2)cc2c1O[C@]1(C)CC[C@@H](O)C(C)(C)[C@H]1C2	0.035	0.71
COc1cc(CCc2cc(O)c(C/C=C(\C)CC/C=C(\C)CO)c(O)c2)cc2c1O[C@]1(C)CC[C@@H](O)C(C)(C)[C@H]1C2	2.5	4.9
CC(C)=CCC/C(C)=C/Cc1c(O)cc(/C=C/c2cc(O)c3c(c2)C[C@@H]2C(C)(C)[C@H](O)[C@H](O)C[C@@]2(C)O3)cc1O [SCHWEINFURTHIN A]	0.011	0.36

— ChEMBL document CHEMBL5236570, “Substitution of a triazole for the central olefin in biologically active stilbenes” (2022)
